Data taken from patent US20120251551A1, “Substituted (Heteroarylmethyl)thiohydantoins” (BAYER PHARMA AKTIENGESELLSCHAFT, priority 2009, published 2012).
Numbering of substitutions follows the chain as printed. Read-outs that look alike come from different tables or passages of the source.

Legend:
[1] = molecular target: T1, wild-type human androgen receptor (Homo sapiens, UniProt P10275); assay: Cell-based transactivation assay for wild-type human androgen receptor (PC-3 cells, MMTV-luciferase reporter)
T1 construct: expressed in transfected cells
T1 sequence (P10275 1-920): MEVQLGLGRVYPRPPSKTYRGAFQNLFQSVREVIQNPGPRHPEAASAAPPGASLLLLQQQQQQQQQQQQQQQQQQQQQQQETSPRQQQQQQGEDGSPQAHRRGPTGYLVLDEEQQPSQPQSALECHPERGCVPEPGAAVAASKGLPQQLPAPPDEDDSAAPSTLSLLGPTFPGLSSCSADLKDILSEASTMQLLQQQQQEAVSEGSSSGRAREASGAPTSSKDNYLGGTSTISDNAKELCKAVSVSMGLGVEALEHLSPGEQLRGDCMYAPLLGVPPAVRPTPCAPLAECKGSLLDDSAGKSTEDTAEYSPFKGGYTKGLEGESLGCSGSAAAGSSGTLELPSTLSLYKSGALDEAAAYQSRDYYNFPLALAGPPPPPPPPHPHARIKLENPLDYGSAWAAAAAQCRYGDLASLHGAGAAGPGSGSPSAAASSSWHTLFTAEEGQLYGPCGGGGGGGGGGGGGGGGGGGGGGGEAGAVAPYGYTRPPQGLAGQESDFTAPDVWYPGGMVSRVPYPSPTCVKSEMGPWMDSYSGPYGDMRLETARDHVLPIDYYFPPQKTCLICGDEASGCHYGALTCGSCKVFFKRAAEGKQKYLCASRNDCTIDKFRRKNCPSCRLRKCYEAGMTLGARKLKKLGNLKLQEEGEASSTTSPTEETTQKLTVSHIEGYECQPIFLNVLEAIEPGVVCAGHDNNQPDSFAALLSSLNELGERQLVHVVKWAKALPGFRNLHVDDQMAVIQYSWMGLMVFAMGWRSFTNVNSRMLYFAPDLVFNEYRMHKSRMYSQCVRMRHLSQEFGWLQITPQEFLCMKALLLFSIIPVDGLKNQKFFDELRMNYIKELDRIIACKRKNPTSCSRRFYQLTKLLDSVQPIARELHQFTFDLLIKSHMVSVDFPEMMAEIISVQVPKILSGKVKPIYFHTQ
Experimental: Cell-Based Transactivation Assay for Wild-Type Human Androgen Receptor
PC-3 cells (Kaighn et al., Invest. Urol. 17:16-23, 1979) stably transfected with the human androgen receptor (Swiss-Prot Acc. No. P10275, Entry Version 159, Sequence Version 2) and a reporter plasmid based on pGL4.14 (#E6691, Promega Corporation, Madison, Wis., USA) containing the MMTV promoter (Cato et al., EMBO J. 6:363-8, 1987) were used. They were grown in 5% charcoal-stripped medium and seeded at a concentration of 1000 cells per well in a 384-well plate. For determination of antagonistic activity, the plate additionally contained the compound to be tested at a concentration range varying from 5.12×10^−12 to 1×10^−5 M. The assay was performed in presence of 1×10^−10 R1881 (also known as methyltrienolone). After overnight incubation at 37° C. in a 5% CO2 atmosphere, 15 μl of Steady Glo Lysis and Detection reagent (Steady Glo Luciferase assay system E2550 from Promega Corporation. Madison, Wis., USA) were added. IC50 was calculated for anti-androgenic activity as well as percentage inhibition in presence of 2 μM compound in comparison to non-stimulated luciferase signal. Agonistic activity was determined using the same concentration range of compound in the absence of R1881 by measuring Luciferase activity as above. EC50 was calculated for androgenic activity. Assay/read plates were used (Polystyrol; 384, NV-white cell culture plates; Perkin Elmer).

[2] = molecular target: T2, human androgen receptor W741L mutant (Homo sapiens, UniProt P10275, W742L); assay: Cell-based transactivation assay for human androgen receptor mutant W741L
T2 construct: expressed in transfected cells; host or cells: PC-3 cells, transient transfection with a pSG5-derived plasmid
T2 sequence (P10275 1-920 W742L): T1 sequence (P10275 1-920) with W742L
Experimental: Cell-Based Transactivation Assay for Human Androgen Receptor Mutant W741L or W741C
PC-3 cells (Kaighn et al., Invest. Urol. 17:16-23, 1979) were grown in 5% charcoal-stripped medium and seeded at a concentration of 10000 cells per well in a 96-well plate. They were transiently transfected with a pSG5-derived plasmid (#216201 from Stratagene, La Jolla, Calif., USA) coding for the human androgen receptor W741L or W741C mutant Mara et al., Cancer Research, 63: 149-153, 2003) and an MMTV-Luciferase reporter plasmid based on pGL4.14 14 (#E6691, Promega Corporation, Madison, Wis., USA). The compound to be tested was added at a concentration range varying from 1×10^−9 to 1×10 M together with 1×10^−10 R1881. After 24 h incubation at 37° C. in a 5% CO2 atmosphere, 100 μl of Steady Glo Lysis and Detection reagent (Steady Glo Luciferase assay system E2550 from Promega Corporation. Madison, Wis., USA) were added. Antagonistic activity was determined by measuring Luciferase activity in a Victor 3 Luminometer (PerkinElmer, Waltham, Mass., USA) using the Steady Glo Luciferase Assay (E2550, Promega). IC50 values were calculated for anti-androgenic activity.

[3] = test system: VCaP cells; assay: Proliferation assay with VCaP cells; assay type: cell-based; settings: Homo sapiens, 168 h, R1881 (1×10^−10) stimulated growth
Experimental: Proliferation Assay with VCaP Cells
VCaP cells ((Korenchuk et al., In Vivo 15: 163-168, 2001)) were seeded at 16 000 cells/well in 96-well plates in DMEM (F0445, Biochrom AG, Berlin, Germany) with phenol red supplemented with 10% charcoal-stripped serum. After 1 day, the cells were treated with R1881 (1×10^−10) and compound (day 0). Cell number was determined by Alamar Blue (DAL1100, Invitrogen, Life Technologies, Lohne, Germany) staining (2.5 h) at day 0 and day 7. Fluorescence was determined in Victor3 (Excitation 530 nm; emission 590 nm). Stimulated growth was defined as the signal measured at day 7 for cells treated only with R1881. Basal level was defined as the signal measured at day 7 for cells grown without R1881.

[4] = molecular target: T3, human androgen receptor E709Y mutant (Homo sapiens, UniProt P10275, E710Y); assay: Cell-based transactivation assay for human androgen receptor mutant E709Y
T3 construct: expressed in transfected cells; host or cells: PC-3 cells, transient transfection with a pSG5-derived plasmid
T3 sequence (P10275 1-920 E710Y): T1 sequence (P10275 1-920) with E710Y
Experimental: Cell-Based Transactivation Assay for Human Androgen Receptor Mutant E709Y
PC-3 cells (Kaighn et al., Invest. Urol. 17:16-23, 1979) were grown in 5% charcoal-stripped medium and seeded at a concentration of 10000 cells per well in a 96-well plate. They were transiently transfected with a pSG5-derived plasmid (#216201 from Stratagene, La Jolla, Calif., USA) coding for the human androgen receptor E709Y mutant (Georget et al., Molecular Endocrinology, 20(4): 724-734, 2006) and an MMTV-Luciferase reporter plasmid based on pGL4.14 14 (#E6691, Promega Corporation, Madison, Wis., USA). The compound to be tested was added at a concentration range varying from 1×10^−9 to 1×10^−6 M together with 1×10^−10 R1881. After 24 h incubation at 37° C. in a 5% CO2 atmosphere, 100 μl of Steady Glo Lysis and Detection reagent (Steady Glo Luciferase assay system E2550 from Promega Corporation. Madison, Wis., USA) were added. Antagonistic activity was determined by measuring Luciferase activity in a Victor 3 Luminometer (PerkinElmer, Waltham, Mass., USA) using the Steady Glo Luciferase Assay (E2550, Promega). IC50 values were calculated for anti-androgenic activity.

[5] = test system: LNCaP cells; assay: Proliferation assay with LNCaP cells; assay type: cell-based; settings: Homo sapiens, 168 h, R1881 (1×10^−10) stimulated growth, day 7, read-out: inhibition IC50 (LNCaP)
Experimental: Proliferation Assay with LNCaP Cells
LNCaP cells (Horoszewicz et al., in “Models for Prostate Cancer” (ed. G. P. Murphy), Alan R. Liss, New York 1981, p. 115-132; Horoszewicz et al., Cancer Res. 43:1809-1818, 1983) were seeded at 2000 cells/well in 96-well plates in RPMI (F1235, Biochrom AG, Berlin, Germany) without phenol red supplemented with 5% charcoal-stripped serum. After 3 days, the cells were treated with R1881) (1×10^−10) and compound (day 0). Cell number was determined by Alamar Blue (DAL1100, Invitrogen, Life Technologies, Lohne, Germany) staining (2.5 h) at day 0 and day 7. Fluorescence was determined in Victor3 (Excitation 530 nm; emission 590 nm). Stimulated growth was defined as the signal measured at day 7 for cells treated only with R1881. Basal level was defined as the signal measured at day 7 for cells grown without R1881.

[6] = day 7, read-out: Antiproliferative activity VCaP IC50
[7] = day 7, read-out: inhibition IC50 (VCaP)

Row | SMILES | EC50 [1] [nM] | IC50 [2] [nM] | IC50 [3, 6] [nM] | IC50 [4] [nM] | IC50 [5] [nM] | IC50 [3, 7] [nM]
1 | COc1ccc(CN2C(=S)N(c3ccc(C#N)c(C(F)(F)F)c3)C(=O)C2(C)C)cc1 [Comparative data^4] | 6810 | 379 | 860 | 80.2 |  | 
2 | CC1(C)C(=O)N(c2ccc(C#N)c(C(F)(F)F)c2)C(=S)N1Cc1ccc(OCCN2CCOCC2)nc1 [Example 3, 4-[4,4-Dimethyl-3-({6-[2-(morpholin-4-yl)ethoxy]pyridin-3-yl}methyl)-5-oxo-2-thioxoimidazolidin-1-yl]-2-(trifluoromethyl)benzonitrile] | > 10000 | 118 | 176 | 79.5 | 127 | 
3 | CC1(C)C(=O)N(c2ccc(C#N)c(C(F)(F)F)c2)C(=S)N1Cc1ccc(OC2CCOCC2)nc1 [Example 5, 4-(4,4-Dimethyl-5-oxo-3-{[6-(tetrahydro-2H-pyran-4-yloxy)pyridin-3-yl]methyl}-2-thioxoimidazolidin-1-yl)-2-(trifluoromethyl)benzonitrile] | > 10000 | 49.7 |  | 44.8 | 200 | 
4 | CC1(C)C(=O)N(c2ccc(C#N)c(C(F)(F)F)c2)C(=S)N1Cc1cnc(N2CCOCC2)nc1N [Example 6, 4-(3-{[4-Amino-2-(morpholin-4-yl)pyrimidin-5-yl]methyl}-4,4-dimethyl-5-oxo-2-thioxoimidazolidin-1-yl)-2-(trifluoromethyl)benzonitrile] | 5000 | 92.8 |  | 19.3 |  | 
5 | CC1CN(c2ccc(CN3C(=S)N(c4ccc(C#N)c(C(F)(F)F)c4)C(=O)C3(C)C)cn2)CCO1 (stereo not shown) [Example 7, 4-(4,4-Dimethyl-3-{[6-(2-methylmorpholin-4-yl)pyridin-3-yl]methyl}-5-oxo-2-thioxoimidazolidin-1-yl)-2-(trifluoromethyl)benzonitrile] | > 10000 | 49.1 | 106 | 22.6 | 118 | 106
6 | COc1ccc(CN2C(=S)N(c3ccc(C#N)c(C(F)(F)F)c3)C(=O)C2(C)C)cn1 [Example 8, 4-{3-[(6-Methoxypyridin-3-yl)methyl]-4,4-dimethyl-5-oxo-2-thioxoimidazolidin-1-yl}-2-(trifluoromethyl)benzonitrile] | 8860 | 49.2 | 92.5 | 9.18 | 120 | 92
7 | Cc1nccn1-c1ccc(CN2C(=S)N(c3ccc(C#N)c(C(F)(F)F)c3)C(=O)C2(C)C)cn1 [Example 15, 4-(4,4-Dimethyl-3-{[6-(2-methyl-1H-imidazol-1-yl)pyridin-3-yl]methyl}-5-oxo-2-thioxoimidazolidin-1-yl)-2-(trifluoromethyl)benzonitrile] | > 10000 | 13.2 | 253 | 29.9 | 116 | 
8 | CC1(C)CC(=O)N(c2ccc(CN3C(=S)N(c4ccc(C#N)c(C(F)(F)F)c4)C(=O)C3(C)C)cn2)C1 [Example 16, 4-(3-{[6-(4,4-Dimethyl-2-oxopyrrolidin-1-yl)pyridin-3-yl]methyl}-4,4-dimethyl-5-oxo-2-thioxoimidazolidin-1-yl)-2-(trifluoromethyl)benzonitrile] | > 10000 | 78.5 |  | 143 | 121 | 
9 | CN=S1(=O)CCN(c2ccc(CN3C(=S)N(c4ccc(C#N)c(C(F)(F)F)c4)C(=O)C3(C)C)cn2)CC1 [Example 22, 4-[4,4-Dimethyl-3-({6-[1-(methylimino)-1-oxido-1λ^6-thiomorpholin-4-yl]pyridin-3-yl}methyl)-5-oxo-2-thioxoimidazolidin-1-yl]-2-(trifluoromethyl)benzonitrile] | > 10000 | 57.4 |  |  | 135 | 
